# Patent US4298610A, “Ester derivatives of quinolopyran-4-one-2-carboxylic acids and antiallergic antasthmatics” (priority 1978, dated 1981)
# Experiments:
# [1] = test system: passive cutaneous anaphylaxis; experiment: passive cutaneous anaphylaxis test (P.C.A.) on rats, oral administration; format: in vivo, rat (SLC Wister); settings: 0.5 h, rat, antigen 30 minutes after administration, read-out: Percent inhibition (%)
# Procedure: Various 5-hydroxy-quinolopyran-4-one-2-carboxylic acid esters in terms of the R group represented by the general formula [I] were prepared. […] In order to estimate the efficacy of each compound as an anti-allergic antasthmatic, the efficacy was evaluated according to a passive cutaneous anaphylaxis test (P.C.A.) on rats.
# To SLC Wister rats were administered intracutaneously egg white albumin recrystallized 5 times and Bodetallapertussis Vaccine, and serum was collected after 13 days from the rats. […] A physiological salt solution in which egg white albumin and a dye (Evans' blue) were dissolved was administered intravenously, 30 minutes after the oral administration, to the rats; and 30 minutes thereafter the back skins of the rats were peeled off. The dye that transuded from the peeled skin was extracted with Na2 SO4 and acetone, and the quantities of the dye were measured by colorimetry at 620 m μ.
# [2] = test system: passive cutaneous anaphylaxis; experiment: duration of action in the passive cutaneous anaphylaxis test of the rats, interval between oral administration and antigen varied; format: in vivo, rat (SLC Wister); settings: 30 mg/kg
# Procedure: To SLC Wister rats were administered intracutaneously egg white albumin recrystallized 5 times and Bodetallapertussis Vaccine, and serum was collected after 13 days from the rats. […] The serum was diluted 128 times and it was then administered intracutaneously to the back of the rats. After 48 hours, the compounds of the present invention in the quantities shown in Table 1 which had been suspended in 1% tragacanth solution were administered orally to the rats. A physiological salt solution in which egg white albumin and a dye (Evans' blue) were dissolved was administered intravenously, 30 minutes after the oral administration, to the rats; and 30 minutes thereafter the back skins of the rats were peeled off. The dye that transuded from the peeled skin was extracted with Na2 SO4 and acetone, and the quantities of the dye were measured by colorimetry at 620 m μ.
# In the above-described passive cutaneous anaphylaxis test of the rats, the intervals between the oral administration of the present compounds and the administration of egg white albumin and the dye were variously changed to observe the changes in the effect of the compounds depending upon the intervals.
# As a representative compound of the present invention, 2-methyl-1-pentyl ester of 7,8-dimethyl-5-hydroxy-quinolo[4,3-b]pyran-4-one-2-carboxylic acid was used. The percent inhibition is shown in Table 2 when the compound was orally administered in a ratio of 30 mg/kg.
# [3] = cited from earlier work
# allergic asthma = settings: Cox et al; cited from earlier work
smiles,measurement,setting,value
"CCCC(C)COC(=O)c1cc(=O)c2c(O)nc3c(C)c(C)ccc3c2o1 (stereo not shown) [2-methyl-1-pentyl ester of 7,8-dimethyl-5-hydroxy-quinolo[4,3-b]pyran-4-one-2-carboxylic acid]",inhibition in vivo at 30 mg/kg,[1],97.9%
same,Percent inhibition (%),[2]; period of time 10 min.,96.5%
same,Percent inhibition (%),[2]; period of time 20 min.,98.5%
same,Percent inhibition (%),[2]; period of time 30 min.,95.0%
same,Percent inhibition (%),[2]; period of time 40 min.,93.0%
same,Percent inhibition (%),[2]; period of time 1 hr.,92.5%
same,Percent inhibition (%),[2]; period of time 2 hrs.,72.5%
same,Percent inhibition (%),[2]; period of time 3 hrs.,61.5%
same,Percent inhibition (%),[2]; period of time 4 hrs.,53.0%
"Cc1ccc2c(nc(O)c3c(=O)cc(C(=O)OCCCC(C)C)oc32)c1C [4-methyl-1-pentyl ester of 7,8-dimethyl-5-hydroxy-quinolo[4,3-b]pyran-4-one-2-carboxylic acid]",inhibition in vivo at 30 mg/kg,[1],78.5%
"Cc1ccc2c(nc(O)c3c(=O)cc(C(=O)OC(C)CC(C)C)oc32)c1C (stereo not shown) [4-methyl-2-pentyl ester of 7,8-dimethyl-5-hydroxy-quinolo[4,3-b]pyran-4-one-2-carboxylic acid]",inhibition in vivo at 30 mg/kg,[1],67.6%
"Cc1ccc2c(nc(O)c3c(=O)cc(C(=O)O)oc32)c1C [7,8-dimethyl-5-hydroxy-quinolo[4,3-b]pyran-4-one-2-carboxylic acid, reference compound]",inhibition in vivo at 100 mg/kg,[1],5.5%
"Cc1ccc2c(nc(O)c3c(=O)cc(C(=O)OCc4ccccc4)oc32)c1C [benzyl ester of 7,8-dimethyl-5-hydroxy-quinolo[4,3-b]pyran-4-one-2-carboxylic acid, reference compound]",inhibition in vivo at 100 mg/kg,[1],13.2%
O=C(O)c1cc(=O)c2c(OCC(O)COc3cccc4oc(C(=O)O)cc(=O)c34)cccc2o1 [disodium cromoglycate],absorption via oral administration,[3],cannot be absorbed via oral administration
same,effectiveness for allergic asthma,allergic asthma,effective for allergic asthma
"CCOC(=O)c1cc(=O)c2c(O)nc3c(C)c(C)ccc3c2o1 [ethyl ester of 7,8-dimethyl-5-hydroxy-quinolo[4,3-b]pyran-4-one-2-carboxylic acid, reference compound]",inhibition in vivo at 100 mg/kg,[1],36.1%
"Cc1ccc2c(nc(O)c3c(=O)cc(C(=O)OC(C)C)oc32)c1C [isopropyl ester of 7,8-dimethyl-5-hydroxy-quinolo[4,3-b]pyran-4-one-2-carboxylic acid, reference compound]",inhibition in vivo at 30 mg/kg,[1],7.3%
"COC(=O)c1cc(=O)c2c(O)nc3c(C)c(C)ccc3c2o1 [methyl ester of 7,8-dimethyl-5-hydroxy-quinolo[4,3-b]pyran-4-one-2-carboxylic acid, reference compound]",inhibition in vivo at 100 mg/kg,[1],39.4%
"CCCCOC(=O)c1cc(=O)c2c(O)nc3c(C)c(C)ccc3c2o1 [n-butyl ester of 7,8-dimethyl-5-hydroxy-quinolo[4,3-b]pyran-4-one-2-carboxylic acid, reference compound]",inhibition in vivo at 30 mg/kg,[1],48.8%
"CCCCCCCCCCOC(=O)c1cc(=O)c2c(O)nc3c(C)c(C)ccc3c2o1 [n-decyl ester of 7,8-dimethyl-5-hydroxy-quinolo[4,3-b]pyran-4-one-2-carboxylic acid, reference compound]",inhibition in vivo at 30 mg/kg,[1],4.7%
"CCCCCCCCCCCCOC(=O)c1cc(=O)c2c(O)nc3c(C)c(C)ccc3c2o1 [n-dodecyl ester of 7,8-dimethyl-5-hydroxy-quinolo[4,3-b]pyran-4-one-2-carboxylic acid, reference compound]",inhibition in vivo at 30 mg/kg,[1],-26.2%
"CCCCCCCOC(=O)c1cc(=O)c2c(O)nc3c(C)c(C)ccc3c2o1 [n-heptyl ester of 7,8-dimethyl-5-hydroxy-quinolo[4,3-b]pyran-4-one-2-carboxylic acid, reference compound]",inhibition in vivo at 30 mg/kg,[1],36.3%
"CCCCCCOC(=O)c1cc(=O)c2c(O)nc3c(C)c(C)ccc3c2o1 [n-hexyl ester of 7,8-dimethyl-5-hydroxy-quinolo[4,3-b]pyran-4-one-2-carboxylic acid]",inhibition in vivo at 30 mg/kg,[1],72%
"CCCCCCCCOC(=O)c1cc(=O)c2c(O)nc3c(C)c(C)ccc3c2o1 [n-octyl ester of 7,8-dimethyl-5-hydroxy-quinolo[4,3-b]pyran-4-one-2-carboxylic acid, reference compound]",inhibition in vivo at 30 mg/kg,[1],39.3%
"CCCCCOC(=O)c1cc(=O)c2c(O)nc3c(C)c(C)ccc3c2o1 [n-pentyl ester of 7,8-dimethyl-5-hydroxy-quinolo[4,3-b]pyran-4-one-2-carboxylic acid, reference compound]",inhibition in vivo at 30 mg/kg,[1],26.5%
